Calls of active or inactive are those of the source. No cut-off for these calls is given here.
What was measured:
[1] = test system: Human immunodeficiency virus; assay: Inhibition of HIV reverse transcriptase activity expressed in Escherichia coli
[2] = test system: Rauscher murine leukemia virus; assay: Inhibition of Rauscher murine leukemia virus reverse transcriptase activity
[3] = test system: Human immunodeficiency virus; assay: Inhibition of HIV reverse transcriptase expressed in Escherichia coli assessed as competitive inhibition using (rA)n.(dT)12-18 as primer by double reciprocal plot
[4] = test system: Human immunodeficiency virus; assay: Inhibition of HIV reverse transcriptase expressed in Escherichia coli assessed as non-competitive inhibition using dTTP as primer by double reciprocal plot
[5] = Inhibition of HIV reverse transcriptase expressed in Escherichia coli by Dixon plot; design: species or system Human immunodeficiency virus
[6] = test system: Human immunodeficiency virus; assay: Inhibition of HIV reverse transcriptase expressed in Escherichia coli assessed as mixed-type inhibition using (rA)n.(dT)12-18 as primer by double reciprocal plot
DNA polymerase beta [7] = molecular target: T1, DNA polymerase beta (Homo sapiens, UniProt P06746); assay: Inhibition of DNA polymerase beta from human KB3 cells assessed as competitive type inhibition using (rA)n.(dT)12-18 as substrate
[8] = molecular target: T2, DNA polymerase alpha catalytic subunit (Homo sapiens, UniProt P09884); assay: Inhibition of DNA polymerase alpha from human KB3 cells; assay type: cell-based
T2 sequence (P09884 whole entry): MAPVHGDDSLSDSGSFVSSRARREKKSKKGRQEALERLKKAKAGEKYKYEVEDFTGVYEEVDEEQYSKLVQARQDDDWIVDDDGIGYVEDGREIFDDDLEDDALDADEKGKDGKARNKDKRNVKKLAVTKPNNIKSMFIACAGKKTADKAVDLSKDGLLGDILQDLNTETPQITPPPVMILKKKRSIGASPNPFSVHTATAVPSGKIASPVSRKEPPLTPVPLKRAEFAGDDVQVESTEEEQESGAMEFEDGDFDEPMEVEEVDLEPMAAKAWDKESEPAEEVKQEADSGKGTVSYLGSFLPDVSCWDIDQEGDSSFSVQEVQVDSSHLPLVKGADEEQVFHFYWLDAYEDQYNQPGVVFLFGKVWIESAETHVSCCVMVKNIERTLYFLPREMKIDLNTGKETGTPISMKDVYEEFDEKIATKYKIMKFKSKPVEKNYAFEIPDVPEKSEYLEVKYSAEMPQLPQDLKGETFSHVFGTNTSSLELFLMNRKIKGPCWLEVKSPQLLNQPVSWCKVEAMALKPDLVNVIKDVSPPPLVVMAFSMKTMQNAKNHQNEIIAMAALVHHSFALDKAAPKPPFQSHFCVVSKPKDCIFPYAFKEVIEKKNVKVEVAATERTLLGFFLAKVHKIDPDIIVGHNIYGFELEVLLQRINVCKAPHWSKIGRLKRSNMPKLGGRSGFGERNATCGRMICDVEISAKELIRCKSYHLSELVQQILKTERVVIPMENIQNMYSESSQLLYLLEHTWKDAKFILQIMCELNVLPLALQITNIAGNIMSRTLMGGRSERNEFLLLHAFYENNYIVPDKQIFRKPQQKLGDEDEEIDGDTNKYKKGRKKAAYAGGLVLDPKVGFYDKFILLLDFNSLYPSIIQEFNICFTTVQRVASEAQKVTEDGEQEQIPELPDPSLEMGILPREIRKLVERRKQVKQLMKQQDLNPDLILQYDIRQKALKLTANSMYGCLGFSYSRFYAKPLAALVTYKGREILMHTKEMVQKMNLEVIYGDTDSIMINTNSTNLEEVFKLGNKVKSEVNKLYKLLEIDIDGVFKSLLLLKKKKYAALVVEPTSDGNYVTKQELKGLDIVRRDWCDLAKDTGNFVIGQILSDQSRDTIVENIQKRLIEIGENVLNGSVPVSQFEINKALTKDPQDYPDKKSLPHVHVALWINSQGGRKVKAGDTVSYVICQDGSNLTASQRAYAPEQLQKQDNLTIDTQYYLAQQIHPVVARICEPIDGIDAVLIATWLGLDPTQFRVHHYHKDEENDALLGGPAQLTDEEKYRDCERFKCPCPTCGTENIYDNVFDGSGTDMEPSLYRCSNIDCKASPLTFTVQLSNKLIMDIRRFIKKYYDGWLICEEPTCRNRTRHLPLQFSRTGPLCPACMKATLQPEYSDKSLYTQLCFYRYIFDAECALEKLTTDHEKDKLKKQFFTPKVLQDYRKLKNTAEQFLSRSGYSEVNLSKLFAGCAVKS

[9] = test system: Rauscher murine leukemia virus; assay: Inhibition of Rauscher murine leukemia virus reverse transcriptase assessed as incorporation of [3H]dTMP at 1 ug/ml
[10] = molecular target: T3, DNA polymerase alpha catalytic subunit (Homo sapiens) (UniProt P09884); assay: Inhibition of DNA polymerase alpha from human KB3 cells at 1 ug/ml; assay type: cell-based
T3 sequence (whole entry): T2 sequence (P09884 whole entry)

[11] = molecular target: DNA polymerase I (Escherichia coli) (UniProt P00582); assay: Inhibition of DNA polymerase-1 from Escherichia coli up to 1 ug/ml
DNA polymerase I (Escherichia coli), sequence (P00582 whole entry): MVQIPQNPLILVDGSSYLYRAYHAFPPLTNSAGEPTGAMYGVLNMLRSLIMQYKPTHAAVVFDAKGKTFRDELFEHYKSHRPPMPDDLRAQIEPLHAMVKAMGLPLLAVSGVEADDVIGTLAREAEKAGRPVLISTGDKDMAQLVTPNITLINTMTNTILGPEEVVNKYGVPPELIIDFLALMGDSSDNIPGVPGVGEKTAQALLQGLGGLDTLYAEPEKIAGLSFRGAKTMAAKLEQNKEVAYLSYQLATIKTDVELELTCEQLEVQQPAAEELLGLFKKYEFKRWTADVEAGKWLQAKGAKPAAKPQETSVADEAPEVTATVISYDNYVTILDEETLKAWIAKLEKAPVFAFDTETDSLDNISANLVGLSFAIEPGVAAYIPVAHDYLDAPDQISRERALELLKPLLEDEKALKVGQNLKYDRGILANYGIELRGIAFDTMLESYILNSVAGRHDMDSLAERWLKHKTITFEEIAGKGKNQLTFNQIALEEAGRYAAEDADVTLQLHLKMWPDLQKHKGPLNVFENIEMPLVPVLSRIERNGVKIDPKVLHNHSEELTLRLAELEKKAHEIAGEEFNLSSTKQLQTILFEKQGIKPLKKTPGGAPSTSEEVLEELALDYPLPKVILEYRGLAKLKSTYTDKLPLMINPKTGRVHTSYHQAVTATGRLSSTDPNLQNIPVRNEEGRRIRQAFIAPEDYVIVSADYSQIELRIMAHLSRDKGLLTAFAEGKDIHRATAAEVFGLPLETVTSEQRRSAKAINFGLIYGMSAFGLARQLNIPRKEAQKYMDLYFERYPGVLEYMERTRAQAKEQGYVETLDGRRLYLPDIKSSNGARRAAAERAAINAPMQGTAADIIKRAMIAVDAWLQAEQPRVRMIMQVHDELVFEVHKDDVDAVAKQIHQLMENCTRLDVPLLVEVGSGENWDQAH

[12] = test system: Human immunodeficiency virus; assay: Inhibition of HIV reverse transcriptase expressed in Escherichia coli assessed as incorporation of [3H]dTMP at 1 ug/ml
DNA polymerase beta [13] = molecular target: T1, DNA polymerase beta; assay: Inhibition of DNA polymerase beta from human KB3 cells assessed as non-competitive type inhibition using dTTP as substrate
DNA polymerase beta [14] = molecular target: T1, DNA polymerase beta; assay: Inhibition of DNA polymerase beta from human KB3 cells; assay type: cell-based
[15] = molecular target: T3, DNA polymerase alpha catalytic subunit (Homo sapiens); assay: Inhibition of DNA polymerase alpha from human KB3 cells assessed as competitive type inhibition using activated DNA as substrate
[16] = test system: Rauscher murine leukemia virus; assay: Inhibition of Rauscher murine leukemia virus reverse transcriptase assessed as incorporation of [3H]dTMP at 0.2 ug/ml
KB3 = assay: Inhibition of DNA polymerase gamma from human KB3 cells up to 1 ug/ml; assay type: cell-based
[17] = molecular target: T3, DNA polymerase alpha catalytic subunit (Homo sapiens); assay: Inhibition of DNA polymerase alpha from human KB3 cells assessed as non-competitive type inhibition using dNTP as substrate
[18] = test system: Human immunodeficiency virus; assay: Inhibition of HIV reverse transcriptase expressed in Escherichia coli assessed as incorporation of [3H]dTMP at 0.2 ug/ml
[19] = molecular target: DNA nucleotidylexotransferase (Bos taurus) (UniProt P06526); assay: Inhibition of terminal deoxynucleotidyltransferase from calf thymus up to 1 ug/ml
DNA nucleotidylexotransferase (Bos taurus), sequence (P06526 whole entry): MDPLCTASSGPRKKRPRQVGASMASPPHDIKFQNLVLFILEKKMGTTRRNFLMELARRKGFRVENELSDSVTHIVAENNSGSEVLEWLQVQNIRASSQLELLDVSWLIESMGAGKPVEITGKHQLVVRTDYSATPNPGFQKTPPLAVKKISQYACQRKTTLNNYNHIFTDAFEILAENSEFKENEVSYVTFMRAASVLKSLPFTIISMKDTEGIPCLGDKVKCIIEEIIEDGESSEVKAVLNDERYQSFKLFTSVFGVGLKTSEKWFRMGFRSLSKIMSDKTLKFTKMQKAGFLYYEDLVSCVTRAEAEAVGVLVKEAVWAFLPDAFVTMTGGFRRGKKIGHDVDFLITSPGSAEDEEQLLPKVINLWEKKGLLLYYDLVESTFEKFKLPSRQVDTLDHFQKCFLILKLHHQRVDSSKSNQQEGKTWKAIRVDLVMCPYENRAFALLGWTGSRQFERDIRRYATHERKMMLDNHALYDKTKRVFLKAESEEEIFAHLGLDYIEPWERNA

[20] = test system: Human immunodeficiency virus; assay: Inhibition of HIV reverse transcriptase expressed in Escherichia coli assessed as incorporation of [3H]dTMP at 10 ug/ml
[21] = test system: Rauscher murine leukemia virus; assay: Inhibition of Rauscher murine leukemia virus reverse transcriptase assessed as incorporation of [3H]dTMP at 10 ug/ml

SMILES	Activity [1]	Activity [2]	Activity [4]	Ki [5]	other results
O=C(Oc1cc(O)cc(O)c1C(=O)O)c1ccc(O)c(O)c1	inactive	inactive	–	–	–
COCCOCCOc1c(C(=O)Oc2cc(C(=O)O)cc(O)c2O)ccc(O)c1O	inactive	inactive	–	–	–
COCCOCCOC(=O)c1cc(O)c(O)c(O)c1	inactive	inactive	–	–	–
COCCOCCOC(=O)c1cc(O)c(O)c(OC(=O)c2ccc(O)c(O)c2O)c1	Active	Active	Active	120 nM	Activity [3]: Active
COCCOCCOCCOC(=O)c1cc(O)c(O)c(O)c1	inactive	inactive	–	–	–
COCCOCCOCCOC(=O)c1cc(O)c(O)c(OC(=O)c2ccc(O)c(O)c2O)c1	Active	Active	Active	390 nM	Activity [6]: Active
COCCOCCOc1c(O)ccc(C(=O)Oc2cc(C(=O)O)cc(O)c2O)c1O	inactive	inactive	–	–	–
O=C(O)c1cc(O)c(O)c(OC(=O)c2cc(O)c(O)c(O)c2)c1 [DIGALLIC ACID]	–	–	Active	580 nM	Activity (DNA polymerase beta [7]): Active; Ki [8]: 830 nM; Activity [9]: Active; inhibition [10]: > 90%; Activity [11]: inactive; Activity [12]: Active; Activity (DNA polymerase beta [13]): Active; Ki (DNA polymerase beta [14]): 390 nM; Activity [15]: Active; inhibition [16]: 70%; Activity (KB3): inactive; Activity [17]: Active; inhibition [18]: 70%; Activity [19]: inactive; Activity [6]: Active
O=C(O)c1cc(O)c(O)c(O)c1	inactive	inactive	–	–	Activity [20]: inactive; Activity [21]: inactive

Reference: ChEMBL document CHEMBL1137797, “Differential inhibition of reverse transcriptase and various DNA polymerases by digallic acid and its derivatives” (J Nat Prod, 1990)
